Patent US11161830B2, “4-pyridone compound or salt thereof, and pharmaceutical composition and formulation including same” (priority 2017, dated 2021)
“And” between values parts separate entries of the source, which are not always exact repeats. Identical values can stand only once.

Assays:
[1] = tested on: HBV genotype C; experiment: Test Example 3-2: in vivo efficacy study in PXB mouse (chimeric mouse with human hepatocytes), first and second study; set-up: species or system hepatitis B virus; conditions: second study, orally 3 mg/kg twice a day for 14 days from day 35, individual mice, 3 mg/kg
Procedure: An in vivo efficacy study with a PXB mouse (a chimeric mouse with human hepatocytes) was carried out in PhenixBio Co., Ltd. 19-Week-or-more-old male mice having body weights of 10.5 g or more after the elapse of 13 weeks or more from the infection with HBV genotype C were allocated into the respective groups and used. The studies were carried out twice, and a 21-day administration withdrawal period was provided between the first study and the second study.
The first administration day in the first study was taken as day 0, and the compound of Example 6-5 was orally administered at 1 mg/kg, 3 mg/kg, 10 mg/kg, and 30 mg/kg twice a day, or 0.5% methylcellulose (vehicle) was orally administered once a day for 14 days. Before administration on day 0, day 3, Day 7, and day 10, and on day 14, the blood was collected from the orbital venous plexus under anesthesia with isoflurane.
The first administration day in the second study was taken as day 35, and the compounds of Examples 19-2 and 20-2 were each orally administered at 3 mg/kg twice a day, or 0.5% methylcellulose (vehicle) was orally administered once a day for 14 days. Before administration on day 35, day 38, day 42, and day 45, the blood was collected from the orbital venous plexus under anesthesia with isoflurane. On day 49, the blood was collected from the heart under anesthesia with isoflurane.
(§1) The serum was separated from the collected blood and purified with a QIAamp (registered trademark) DNA Blood Mini Kit (manufactured by QIAGEN). The amount of HBV-DNA in the obtained solution was absolutely quantified by a real-time PCR method. In addition, the amount of HBsAg in the serum was absolutely quantified by chemiluminescent enzyme immunoassay using Lumipulse (registered trademark) HBsAg-HQ (manufactured by Fujirebio Inc.).

[2] = tested on: HBV genotype C; experiment: Test Example 3-3: in vivo efficacy study in PXB mouse (chimeric mouse with human hepatocytes); set-up: species or system hepatitis B virus; conditions: individual mice
Procedure: An in vivo efficacy study with a PXB mouse (a chimeric mouse with human hepatocytes) was carried out in PhenixBio Co., Ltd. Male mice having body weights of 15 g or more after the elapse of 8 weeks from the infection with HBV genotype C were allocated into the respective groups and used.
The compounds of Example 20-2 was orally administered at 2 mg/kg, 6 mg/kg, and 20 mg/kg once a day, and at 1 mg/kg, 3 mg/kg, and 10 mg/kg twice a day, or 0.5% methylcellulose (vehicle) was orally administered once a day for 14 days. A first administration day was taken as day 0, and before administration on day 0, day 3, Day 7, and day 10, and on day 14, the blood was collected from the orbital venous plexus under anesthesia with isoflurane.
as §1, with “Lumnipulse” for “Lumipulse”

[3] = orally 1 mg/kg twice a day, Day 0 (before administration), 1 mg/kg
[4] = orally 1 mg/kg twice a day, Day 3, 1 mg/kg
[5] = orally 1 mg/kg twice a day, Day 7, 1 mg/kg
[6] = orally 1 mg/kg twice a day, Day 10, 1 mg/kg
[7] = orally 1 mg/kg twice a day, Day 14, 1 mg/kg
[8] = orally 2 mg/kg once a day, Day 0 (before administration), 2 mg/kg
[9] = orally 2 mg/kg once a day, Day 3, 2 mg/kg
[10] = orally 2 mg/kg once a day, Day 7, 2 mg/kg
[11] = orally 2 mg/kg once a day, Day 10, 2 mg/kg
[12] = orally 2 mg/kg once a day, Day 14, 2 mg/kg
[13] = orally 3 mg/kg twice a day, Day 0 (before administration), 3 mg/kg
[14] = orally 3 mg/kg twice a day, Day 3, 3 mg/kg
[15] = orally 3 mg/kg twice a day, Day 7, 3 mg/kg
[16] = orally 3 mg/kg twice a day, Day 10, 3 mg/kg
[17] = orally 3 mg/kg twice a day, Day 14, 3 mg/kg
[18] = orally 6 mg/kg once a day, Day 0 (before administration), 6 mg/kg
[19] = orally 6 mg/kg once a day, Day 3, 6 mg/kg
[20] = orally 6 mg/kg once a day, Day 7, 6 mg/kg
[21] = orally 6 mg/kg once a day, Day 10, 6 mg/kg
[22] = orally 6 mg/kg once a day, Day 14, 6 mg/kg
[23] = orally 10 mg/kg twice a day, Day 0 (before administration), 10 mg/kg
[24] = orally 10 mg/kg twice a day, Day 3, 10 mg/kg
[25] = orally 10 mg/kg twice a day, Day 7, 10 mg/kg
[26] = orally 10 mg/kg twice a day, Day 10, 10 mg/kg
[27] = orally 10 mg/kg twice a day, Day 14, 10 mg/kg
[28] = orally 20 mg/kg once a day, Day 0 (before administration), 20 mg/kg
[29] = orally 20 mg/kg once a day, Day 3, 20 mg/kg
[30] = orally 20 mg/kg once a day, Day 7, 20 mg/kg
[31] = orally 20 mg/kg once a day, Day 10, 20 mg/kg
[32] = orally 20 mg/kg once a day, Day 14, 20 mg/kg

COCCO[C@@H]1CCN(c2ccc(-c3cc(=O)c(C(=O)O)cn3-c3ccc4nc(N5CCC[C@@H]5COC)sc4c3)cc2)C1 [Example 19-2, 6-(4-((R)-3-(2-methoxyethoxy)pyrrolidin-1-yl)phenyl)-1-(2-((R)-2-(methoxymethyl)pyrrolidin-1-yl)benzo[d]thiazol-6-yl)-4-oxo-1,4-dihydropyridine-3-carboxylic acid]
HBV-DNA in blood ([1]; Day 35 (before administration)): 6.1E+08 copies/mL and 3.7E+08 copies/mL
HBsAg in serum ([1]; Day 35 (before administration)): 1,872 IU/mL and 2,473 IU/mL
HBV-DNA in blood ([1]; Day 38): 2.1E+08 copies/mL and 6.2E+08 copies/mL
HBsAg in serum ([1]; Day 38): 968 IU/mL and 2,558 IU/mL
HBV-DNA in blood ([1]; Day 42): 3.3E+08 copies/mL and 2.5E+08 copies/mL
HBsAg in serum ([1]; Day 42): 992 IU/mL and 1,238 IU/mL
HBV-DNA in blood ([1]; Day 45): 4.2E+08 copies/mL and 3.0E+08 copies/mL
HBsAg in serum ([1]; Day 45): 1,548 IU/mL and 1,644 IU/mL
HBV-DNA in blood ([1]; Day 49): 1.4E+08 copies/mL and 1.8E+08 copies/mL
HBsAg in serum ([1]; Day 49): 1,509 IU/mL and 1,348 IU/mL

COC1CN(c2nc3ccc(-n4cc(C(=O)O)c(=O)cc4-c4ccc(N5CC[C@@H](OC)C5)c(F)c4)cc3s2)C1 [Example 20-2]
HBV-DNA in blood [2, 3]: 2.8E+08 copies/mL and 1.4E+08 copies/mL
HBsAg in serum [2, 3]: 3,352 IU/mL and 2,640 IU/mL and 4,436 IU/mL
HBV-DNA in blood [2, 4]: 1.7E+08 copies/mL and 1.2E+08 copies/mL and 3.7E+08 copies/mL
HBsAg in serum [2, 4]: 3,056 IU/mL and 2,193 IU/mL and 4,655 IU/mL
HBV-DNA in blood [2, 5]: 1.4E+08 copies/mL
HBsAg in serum [2, 5]: 3,033 IU/mL and 1,691 IU/mL and 3,774 IU/mL
HBV-DNA in blood [2, 6]: 1.4E+08 copies/mL and 3.7E+08 copies/mL
HBsAg in serum [2, 6]: 2,356 IU/mL and 1,694 IU/mL and 3,775 IU/mL
HBV-DNA in blood [2, 7]: 2.5E+08 copies/mL and 1.3E+08 copies/mL and 6.9E+08 copies/mL
HBsAg in serum [2, 7]: 2,833 IU/mL and 2,077 IU/mL and 4,276 IU/mL
HBV-DNA in blood [2, 8]: 4.5E+08 copies/mL and 4.7E+08 copies/mL and 4.4E+08 copies/mL
HBsAg in serum [2, 8]: 2,534 IU/mL and 2,701 IU/mL and 3,776 IU/mL
HBV-DNA in blood [2, 9]: 3.3E+08 copies/mL
HBsAg in serum [2, 9]: 2,393 IU/mL and 1,918 IU/mL and 3,502 IU/mL
HBV-DNA in blood [2, 10]: 1.7E+08 copies/mL and 5.3E+08 copies/mL
HBsAg in serum [2, 10]: 1,612 IU/mL and 2,211 IU/mL and 3,236 IU/mL
HBV-DNA in blood [2, 11]: 4.2E+08 copies/mL and 4.3E+08 copies/mL and 3.9E+08 copies/mL
HBsAg in serum [2, 11]: 1,946 IU/mL and 1,609 IU/mL and 3,623 IU/mL
HBV-DNA in blood [2, 12]: 4.3E+08 copies/mL
HBsAg in serum [2, 12]: 1,526 IU/mL and 2,321 IU/mL and 3,366 IU/mL
HBV-DNA in blood [2, 13]: 3.4E+08 copies/mL and 3.8E+08 copies/mL
HBsAg in serum [2, 13]: 2,582 IU/mL and 2,395 IU/mL and 3,879 IU/mL
HBV-DNA in blood [2, 14]: 2.2E+08 copies/mL and 1.8E+08 copies/mL and 2.1E+08 copies/mL
HBsAg in serum [2, 14]: 1,034 IU/mL and 1,048 IU/mL and 1,801 IU/mL
HBV-DNA in blood [2, 15]: 2.8E+08 copies/mL and 1.2E+08 copies/mL and 1.8E+08 copies/mL
HBsAg in serum [2, 15]: 1,275 IU/mL and 785 IU/mL and 1,286 IU/mL
HBV-DNA in blood [2, 16]: 4.3E+08 copies/mL
HBsAg in serum [2, 16]: 1,017 IU/mL and 900 IU/mL and 1,379 IU/mL
HBV-DNA in blood [2, 17]: 3.7E+08 copies/mL and 3.4E+08 copies/mL and 3.6E+08 copies/mL
HBsAg in serum [2, 17]: 1,051 IU/mL and 910 IU/mL and 1,375 IU/mL
HBV-DNA in blood [2, 18]: 6.7E+08 copies/mL and 1.6E+08 copies/mL and 4.3E+08 copies/mL
HBsAg in serum [2, 18]: 3,883 IU/mL and 1,905 IU/mL and 3,703 IU/mL
HBV-DNA in blood [2, 19]: 3.8E+08 copies/mL and 2.0E+08 copies/mL and 1.7E+08 copies/mL
HBsAg in serum [2, 19]: 3,331 IU/mL and 1,529 IU/mL and 2,004 IU/mL
HBV-DNA in blood [2, 20]: 1.5E+08 copies/mL and 3.3E+08 copies/mL
HBsAg in serum [2, 20]: 3,453 IU/mL and 1,321 IU/mL and 2,025 IU/mL
HBV-DNA in blood [2, 21]: 3.8E+08 copies/mL and 2.2E+08 copies/mL and 1.5E+08 copies/mL
HBsAg in serum [2, 21]: 2,920 IU/mL and 1,342 IU/mL and 1,100 IU/mL
HBV-DNA in blood [2, 22]: 2.2E+08 copies/mL and 1.5E+08 copies/mL and 7.7E+08 copies/mL
HBsAg in serum [2, 22]: 2,569 IU/mL and 1,312 IU/mL and 1,879 IU/mL
HBV-DNA in blood [2, 23]: 4.2E+08 copies/mL and 3.8E+08 copies/mL
HBsAg in serum [2, 23]: 3,678 IU/mL and 2,545 IU/mL and 3,727 IU/mL
HBV-DNA in blood [2, 24]: 1.7E+08 copies/mL and 2.5E+08 copies/mL
HBsAg in serum [2, 24]: 994 IU/mL and 735 IU/mL and 901 IU/mL
HBV-DNA in blood [2, 25]: 2.1E+08 copies/mL and 1.6E+08 copies/mL and 1.1E+08 copies/mL
HBsAg in serum [2, 25]: 707 IU/mL and 547 IU/mL and 708 IU/mL
HBV-DNA in blood [2, 26]: 1.5E+08 copies/mL and 1.7E+08 copies/mL
HBsAg in serum [2, 26]: 861 IU/mL and 593 IU/mL and 676 IU/mL
HBV-DNA in blood [2, 27]: 2.0E+08 copies/mL
HBsAg in serum [2, 27]: 931 IU/mL and 620 IU/mL and 738 IU/mL
HBV-DNA in blood [2, 28]: 2.8E+08 copies/mL
HBsAg in serum [2, 28]: 3,225 IU/mL and 3,886 IU/mL and 2,106 IU/mL
HBV-DNA in blood [2, 29]: 2.1E+08 copies/mL and 2.0E+08 copies/mL and 9.7E+07 copies/mL
HBsAg in serum [2, 29]: 1,239 IU/mL and 1,019 IU/mL and 517 IU/mL
HBV-DNA in blood [2, 30]: 1.6E+08 copies/mL and 1.4E+08 copies/mL and 8.2E+07 copies/mL
HBsAg in serum [2, 30]: 1,003 IU/mL and 877 IU/mL and 385 IU/mL
HBV-DNA in blood [2, 31]: 3.3E+08 copies/mL and 2.5E+08 copies/mL and 1.5E+08 copies/mL
HBsAg in serum [2, 31]: 1,200 IU/mL and 1,104 IU/mL and 493 IU/mL
HBV-DNA in blood [2, 32]: 2.1E+08 copies/mL and 2.9E+08 copies/mL and 1.6E+08 copies/mL
HBsAg in serum [2, 32]: 1,037 IU/mL and 1,159 IU/mL and 497 IU/mL
HBV-DNA in blood ([1]; Day 35 (before administration)): 8.2E+08 copies/mL and 8.3E+08 copies/mL
HBsAg in serum ([1]; Day 35 (before administration)): 2,556 IU/mL and 3,408 IU/mL
HBV-DNA in blood ([1]; Day 38): 4.6E+08 copies/mL and 4.0E+08 copies/mL
HBsAg in serum ([1]; Day 38): 948 IU/mL and 1,061 IU/mL
HBV-DNA in blood ([1]; Day 42): 2.6E+08 copies/mL and 5.0E+08 copies/mL
HBsAg in serum ([1]; Day 42): 832 IU/mL and 1,478 IU/mL
HBV-DNA in blood ([1]; Day 45): 3.5E+08 copies/mL and 3.1E+08 copies/mL
HBsAg in serum ([1]; Day 45): 859 IU/mL and 1,185 IU/mL
HBV-DNA in blood ([1]; Day 49): 2.3E+08 copies/mL and 2.7E+08 copies/mL
HBsAg in serum ([1]; Day 49): 1,444 IU/mL and 924 IU/mL
